Laboratory results reported in patent US20080125405A1, “Composition for treating or preventing olfactory disorder” (Samsung Life Public Welfare Foundation Samsung Medical …, priority 2006, published 2008).
Like-named read-outs stand apart in the source and are kept apart here.

Legend:
olfactory epithelium = assay: Height (thickness) of olfactory epithelium after 3-methylindole damage, H&E staining; assay type: in vivo, Sprague-Dawley rats; details: rats, 3-methylindole 150 mg/kg i.p., drug 10 mg/kg oral daily; for height of olfactory epithelium: time point not printed (first sampling, fourth day), mean±SD
Method: (§1) To collect the olfactory tissues of the test group, the reference group and the control group, the test animals of the three groups were sacrificed on the fourth day, the seventh day, the fourteenth day and the twenty eighth day after the treatment with 3-methylindole. Six test animals were sacrificed each time.
(§2) H&E staining of the tissue obtained from Example 1-2 was performed by treating the paraffin block cut into a thickness of 4 μm via the above trimming and microtomy steps of Example 1-2 with a hematoxylin solution (Zymed, USA) and an eosin solution (eosin Y, Sigma, USA). More particularly, the H&E staining was performed as follows.
(§3) The paraffin block cut into a thickness of 4 μm as described in Example 1-2, i.e. the tissue specimen, was deparaffinized by repeating a xylene treatment cycle (dipping the tissue into 100% xylene twenty times) three times, was subjected to rehydration and staining with a hematoxylin solution for 5 minutes, and then was washed thoroughly with flowing water for 15 minutes. The washed tissue specimen was subjected to differential staining in 0.25% eosin solution for 40 seconds. After the differential staining, the tissue specimen was treated with an increasing amount of alcohol from a lower concentration to a higher concentration (i.e. 50%, 70%, 95% and 100% alcohol) for 1 hour at each concentration to further carry out dehydration. The dehydrated tissue specimen was passed through xylene three times and was encapsulated by covering it with a cover slide.
(§4) To observe damage to or recovery of the olfactory mucous membrane epithelia, the heights and arrangements of the epithelia in the test groups were compared to each other after carrying out H&E staining. To perform the comparison of the heights of the olfactory epithelia, the height of the olfactory epithelium in each test group was measured by taking a photograph of the olfactory mucous membrane at both upper sides of the nasal septum at a magnitude of 200×, wherein the average height of the olfactory mucous membrane epithelium was determined by using an Image J Program (NIH). Also, to perform the comparison of the heights of the olfactory epithelia, columnar arrangement corresponding to the arrangement of the olfactory epithelial cells in each test group was determined.
After measuring the heights of the olfactory epithelia, statistical analysis of the results was performed by using the above mentioned Anova test with Bonferroni's correction.

[1] = system: olfactory epithelial cells; assay: Columnar arrangement grade of olfactory epithelial cells after 3-methylindole damage, H&E staining; assay type: in vivo, Sprague-Dawley rats; details: grade 1 (not arranged) to 3 (well arranged), drug 10 mg/kg oral daily
Method: as §1, §2, §3, §4
Herein, as the grade number increases, a higher degree of regeneration is made in the olfactory mucous membranes.
Additionally, columnar arrangement of the olfactory epithelial cells in each group was determined. The columnar arrangement of each group is shown in FIG. 3 as a grade evaluated according to the above criteria.

olfactory receptor cells = details: grade 0 to 4, higher = more regeneration, drug 10 mg/kg oral daily
Method: As test animals, female white Sprague-Dawley rats (Orient Co., Korea) having a body weight of 100-150 g were used. […] The test animals were raised in raising chambers for one week.
The test animals in the test group and the reference group were subjected to intraperitoneal injection of 150 mg/kg (body weight of each test animal) of 3-methylindole (3-MI) so that their olfactory epithelia were damaged. […] To the test animals in the reference group, 10 mg/kg (body weight of each test animal) of a steroid formulation, i.e. prednisolone, dissolved in 1 cc of saline was orally administered according to the same protocol as the test group. Additionally, to the test animals in the control group, the same amount (1 cc) of saline was administered after the olfactory epithelia were damaged, according to the same protocol as the test group.
To observe the distribution of the olfactory receptor cells, immunoreactivity to protein gene product 9.5 (PGP 9.5) known to exist specifically in the olfactory nerve cells was investigated.
The immunohistological staining was performed by using a Histostain-Plus kit (Zymed, San Francisco, USA). The paraffin block cut into a thickness of 4 μm, i.e. the tissue specimen was positioned on a slide coated with poly-L-lysine and was subjected to rehydration by using a decreasing amount of alcohol gradually from 100% alcohol to distilled water. The rehydrated tissue specimen was introduced into heated 10 mM citrate buffer (pH 5.0, Sigma, USA) and was further heated in a microwave oven twice, for 5 minutes each time. Next, the heated tissue specimen was removed from the microwave oven, cooled in the 10 mM citrate buffer for 20 minutes, washed with distilled water, allowed to react with 0.05M Tris-HCl buffer (Tris buffered saline, TBS) containing 3% H2O2 added thereto for 20 minutes to remove the activity of the endogenous peroxidase, and then was washed with 0.05M Tris-HCl buffered saline three times. After removing the activity of the endogenous peroxidase, the washed tissue specimen was treated with 0.1% Triton X-100 (USB, Ohio, USA) for 15 minutes, and further washed with 0.05M Tris-HCl buffered saline three times. After the treatment with 0.1% Triton X-100, the washed tissue specimen was allowed to react with a blocking reagent (10% normal goat serum) for 30 minutes to inhibit non-specific antigen-antibody reactions. […]

[2] = fourteen days after 3-methylindole
[3] = seven days after 3-methylindole
[4] = twenty eight days after 3-methylindole

Row | Structure (SMILES) | thickness of olfactory epithelium (olfactory epithelium; [2]) | thickness of olfactory epithelium (olfactory epithelium; [3]) | height of olfactory epithelium (olfactory epithelium) | thickness of olfactory epithelium (olfactory epithelium; [4]) | average grade of columnar arrangement of olfactory epithelial cells ([1]; four days after 3-methylindole) | average grade of columnar arrangement of olfactory epithelial cells [1, 2] | average grade of columnar arrangement of olfactory epithelial cells [1, 3] | average grade of columnar arrangement of olfactory epithelial cells [1, 4] | average PGP 9.5 immunostaining grade (olfactory receptor cells; four days after 3-methylindole) | average PGP 9.5 immunostaining grade (olfactory receptor cells; [2]) | average PGP 9.5 immunostaining grade (olfactory receptor cells; [3]) | average PGP 9.5 immunostaining grade (olfactory receptor cells; [4])
1 | CC(C)c1c(C(=O)Nc2ccccc2)c(-c2ccccc2)c(-c2ccc(F)cc2)n1CC[C@@H](O)C[C@@H](O)CC(=O)O [atorvastatin] | 58.6±16.3 μm | 56.1±26.9 μm | 17.4±15.1 μm | 63.9±20.2 μm | 1.0±0.5 | 1.7±0.7 | 1.7±0.3 | 2.8±0.5 |  |  |  | 
2 | C[C@]12C=CC(=O)C=C1CC[C@@H]1[C@@H]2[C@@H](O)C[C@@]2(C)[C@H]1CC[C@]2(O)C(=O)CO [prednisolone] | 60.5±11.6 μm | 21.1±13.4 μm | 9.5±4.7 μm | 72.2±21.8 μm | 0.9±0.3 | 1.8±0.5 |  | 2.5±0.4 | 0.5±0.67 | 2.42±1.38 | 0.92±0.79 | 1.75±1.22
